Measurements: US8906852B2 (MethylGene Inc., priority 2010, dated 2014)

target: T1, VEGFR/KDR (Homo sapiens, UniProt P35968); test: VEGFR/KDR kinase inhibition, DELFIA assay; type: biochemical; details: ATP 0.6 uM (2x Km), enzyme 5 nM
T1 construct: made in house; host or cells: Sf9 cells (Spodoptera frugiperda), baculovirus
Outline: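 DELFIA time-resolved fluorescence readout using Europium-tagged anti-phosphotyrosine antibody after EDTA stop. Kinase reaction on plate-bound poly(Glu4,Tyr) ran 10-30 min at 30° C with 5 nM enzyme and 0.6 uM ATP (2× Km), following 4 min on-ice pre-incubation with compound; IC50 over a concentration range.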

T1 sequence (P35968 806-1356): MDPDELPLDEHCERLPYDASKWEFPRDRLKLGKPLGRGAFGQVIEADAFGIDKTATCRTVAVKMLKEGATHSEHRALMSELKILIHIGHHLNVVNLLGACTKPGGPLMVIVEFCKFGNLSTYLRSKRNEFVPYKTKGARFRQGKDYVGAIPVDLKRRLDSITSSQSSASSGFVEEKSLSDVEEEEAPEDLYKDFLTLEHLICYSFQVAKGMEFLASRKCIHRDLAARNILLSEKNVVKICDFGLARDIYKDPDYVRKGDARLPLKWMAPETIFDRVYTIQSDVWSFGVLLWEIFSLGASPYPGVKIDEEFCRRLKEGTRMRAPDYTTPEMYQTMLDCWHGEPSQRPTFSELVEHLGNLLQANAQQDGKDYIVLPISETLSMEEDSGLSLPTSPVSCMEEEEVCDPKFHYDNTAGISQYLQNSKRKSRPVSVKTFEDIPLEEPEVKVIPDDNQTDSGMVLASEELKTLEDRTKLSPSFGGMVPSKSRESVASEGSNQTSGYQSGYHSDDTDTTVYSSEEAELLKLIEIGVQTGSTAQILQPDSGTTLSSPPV

| Compound | IC50 [nM] |
| --- | --- |
| CC(=O)OCC(=O)N1CCN(Cc2ccc(-c3cc4nccc(Oc5ccc(NC(=O)NC6CC6)cc5F)c4s3)nc2)CC1 [Compound 310, 2-(4-((6-(7-(4-(3-cyclopropylureido)-2-fluorophenoxy)thieno[3,2-b]pyridin-2-yl)pyridin-3-yl)methyl)piperazin-1-yl)-2-oxoethyl acetate] | < 50 |
| O=C(Nc1ccc(Oc2ccnc3cc(-c4ccc(CN5CC6CNCC6C5)cn4)sc23)c(F)c1)NC1CC1 (centres unmarked) [Compound 311, 1-cyclopropyl-3-(3-fluoro-4-(2-(5-((hexahydropyrrolo[3,4-c]pyrrol-2(1H)-yl)methyl)pyridin-2-yl)thieno[3,2-b]pyridin-7-yloxy)phenyl)urea] | < 50 |
| O=C(Nc1ccc(Oc2ccnc3cc(-c4ccc(CN5CCC(F)(F)C5)cn4)sc23)c(F)c1)NC1CC1 [Compound 315, 1-cyclopropyl-3-(4-(2-(5-((3,3-difluoropyrrolidin-1-yl)methyl)pyridin-2-yl)thieno[3,2-b]pyridin-7-yloxy)-3-fluorophenyl)urea] | < 50 |
| O=C(Nc1ccc(Oc2ccnc3cc(-c4ccc(CN5CC[C@H](F)C5)cn4)sc23)c(F)c1)NC1CC1 [Compound 323, (S)-1-cyclopropyl-3-(3-fluoro-4-(2-(5-((3-fluoropyrrolidin-1-yl)methyl)pyridin-2-yl)thieno[3,2-b]pyridin-7-yloxy)phenyl)urea] | < 50 |
| O=C(Nc1ccc(Oc2ccnc3cc(-c4ccc(CN5CCN(Cc6cccnc6)CC5)cn4)sc23)c(F)c1)NC1CC1 [Compound 324, 1-cyclopropyl-3-(3-fluoro-4-(2-(5-((4-(pyridin-3-ylmethyl)piperazin-1-yl)methyl)pyridin-2-yl)thieno[3,2-b]pyridin-7-yloxy)phenyl)urea] | < 50 |
| O=C(Nc1ccc(Oc2ccnc3cc(-c4ccc(CN5CCN(Cc6ccncc6)CC5)cn4)sc23)c(F)c1)NC1CC1 [Compound 325, 1-cyclopropyl-3-(3-fluoro-4-(2-(5-((4-(pyridin-4-ylmethyl)piperazin-1-yl)methyl)pyridin-2-yl)thieno[3,2-b]pyridin-7-yloxy)phenyl)urea] | < 50 |
| O=C(Nc1ccc(Oc2ccnc3cc(-c4ccc(CN5CCN(Cc6ccccn6)CC5)cn4)sc23)c(F)c1)NC1CC1 [Compound 326, 1-cyclopropyl-3-(3-fluoro-4-(2-(5-((4-(pyridin-2-ylmethyl)piperazin-1-yl)methyl)pyridin-2-yl)thieno[3,2-b]pyridin-7-yloxy)phenyl)urea] | < 50 |
| O=C(Nc1ccc(Oc2ccnc3cc(-c4ccc(CN5CCN(CCOCCO)CC5)cn4)sc23)c(F)c1)NC1CC1 [Compound 327] | < 50 |
| COC(=O)COC1CCN(Cc2ccc(-c3cc4nccc(Oc5ccc(NC(=O)NC6CC6)cc5F)c4s3)nc2)CC1 [Compound 328, methyl 2-(1-((6-(7-(4-(3-cyclopropylureido)-2-fluorophenoxy)thieno [3,2-b]pyridin-2-yl)pyridin-3-yl)methyl)piperidin-4-yloxy)acetate] | < 50 |
| O=C(O)COC1CCN(Cc2ccc(-c3cc4nccc(Oc5ccc(NC(=O)NC6CC6)cc5F)c4s3)nc2)CC1 [Compound 329, 2-(1-((6-(7-(4-(3-cyclopropylureido)-2-fluorophenoxy)thieno[3,2-b]pyridin-2-yl)pyridin-3-yl)mcthyI)piperidin-4-yloxy)acetic acid] | < 50 |
| O=C(O)CCC1CCN(Cc2ccc(-c3cc4nccc(Oc5ccc(NC(=O)NC6CC6)cc5F)c4s3)nc2)CC1 [Compound 330, 3-(1-((6-(7-(4-(3-cyclopropylureido)-2-fluorophenoxy)thieno[3,2-b]pyridin-2-yl)pyridin-3-yl)methyl)piperidin-4-yl)propanoic acid] | < 50 |
| O=C(Nc1ccc(Oc2ccnc3cc(-c4ccc(CNc5ccc(OCCN6CCOCC6)cc5)cn4)sc23)c(F)c1)NC1CC1 [Compound 331, 1-Cyclopropyl-3-(3-fluoro-4-(2-(5-((4-(2-morpholinoethoxy)phenylamino)methyl)pyridin-2-yl)thieno[3,2-b]pyridin-7-yloxy)phenyl)urea] | < 50 |
| O=C(Nc1ccc(Oc2ccnc3cc(-c4ccc(CNc5cc[nH]n5)cn4)sc23)c(F)c1)NC1CC1 [Compound 332, 1-(4-(2-(5-((1H-Pyrazol-3-ylamino)methyl)pyridin-2-yl)thieno[3,2-b]pyridin-7-yloxy)-3-fluorophenyl)-3-cyclopropylurea] | < 50 |
| Cc1cc(NCc2ccc(-c3cc4nccc(Oc5ccc(NC(=O)NC6CC6)cc5F)c4s3)nc2)n[nH]1 [Compound 333, 1-Cyclopropyl-3-(3-fluoro-4-(2-(5-((5-methyl-1H-pyrazol-3-ylamino)methyl)pyridin-2-yl)thieno[3,2-b]pyridin-7-yloxy)phenyl)urea] | < 50 |
| Cn1ccc(NCc2ccc(-c3cc4nccc(Oc5ccc(NC(=O)NC6CC6)cc5F)c4s3)nc2)n1 [Compound 334, 1-Cyclopropyl-3-(3-fluoro-4-(2-(5-((1-methyl-1H-pyrazol-3-ylamino)methyl)pyridin-2-yl)thieno[3,2-b]pyridin-7-yloxy)phenyl)urea] | < 50 |
| Cc1cc(NCc2ccc(-c3cc4nccc(Oc5ccc(NC(=O)NC6CC6)cc5F)c4s3)nc2)nn1C [Compound 335, 1-cyclopropyl-3-(4-(2-(5-((1,5-dimethyl-1H-pyrazol-3-ylamino)methyl)pyridin-2-yl)thieno[3,2-b]pyridin-7-yloxy)-3-fluorophenyl)urea] | < 50 |
| CN(C)CCCc1ccc(NCc2ccc(-c3cc4nccc(Oc5ccc(NC(=O)NC6CC6)cc5F)c4s3)nc2)cc1 [Compound 339, 1-cyclopropyl-3-(4-(2-(5-((4-(3-(dimethylamino)propyl)phenylamino)methyl)pyridin-2-yl)thieno[3,2-b]pyridin-7-yloxy)-3-fluorophenyl)urea] | < 50 |
| CCN(CC)CCNC(=O)c1ccc(NCc2ccc(-c3cc4nccc(Oc5ccc(NC(=O)NC6CC6)cc5F)c4s3)nc2)cc1 [Compound 340, 4-((6-(7-(4-(3-cyclopropylureido)-2-fluorophenoxy)thieno[3,2-b]pyridin-2-yl)pyridin-3-yl)methylamino)-N-(2-(diethylamino)ethyl)benzamide] | < 50 |
| O=C(Nc1ccc(Oc2ccnc3cc(-c4ccc(CNc5cccc(OCCN6CCOCC6)c5)cn4)sc23)c(F)c1)NC1CC1 [Compound 341, 1-cyclopropyl-3-(3-fluoro-4-(2-(5-((3-(2-morpholinoethoxy)phenylamino)methyl)pyridin-2-yl)thieno[3,2-b]pyridin-7-yloxy)phenyl)urea] | < 50 |

| Compound | IC50 [nM] |
| --- | --- |
| NC1CCN(Cc2ccc(-c3cc4nccc(Oc5ccc(NC(=O)NC6CC6)cc5F)c4s3)nc2)CC1 [Compound 343, 1-(4-(2-(5-((4-Aminopiperidin-1-yl)methyl)pyridin-2-yl)thieno[3,2-b]pyridin-7-yloxy)-3-fluorophenyl)-3-cyclopropylurea] | < 50 |
| CC(=O)NC1CCN(Cc2ccc(-c3cc4nccc(Oc5ccc(NC(=O)NC6CC6)cc5F)c4s3)nc2)CC1 [Compound 344] | < 50 |
| CC(=O)OCC(=O)NC1CCN(Cc2ccc(-c3cc4nccc(Oc5ccc(NC(=O)NC6CC6)cc5F)c4s3)nc2)CC1 [Compound 345] | < 50 |
| O=C(CO)NC1CCN(Cc2ccc(-c3cc4nccc(Oc5ccc(NC(=O)NC6CC6)cc5F)c4s3)nc2)CC1 [Compound 346] | < 50 |
| O=C(CCn1cncn1)NC1CCN(Cc2ccc(-c3cc4nccc(Oc5ccc(NC(=O)NC6CC6)cc5F)c4s3)nc2)CC1 [Compound 347] | < 50 |
| O=C(CCc1cccnc1)NC1CCN(Cc2ccc(-c3cc4nccc(Oc5ccc(NC(=O)NC6CC6)cc5F)c4s3)nc2)CC1 [Compound 348] | < 50 |
| O=C(CCO)NC1CCN(Cc2ccc(-c3cc4nccc(Oc5ccc(NC(=O)NC6CC6)cc5F)c4s3)nc2)CC1 [Compound 349] | < 50 |
| CS(=O)(=O)NC1CCN(Cc2ccc(-c3cc4nccc(Oc5ccc(NC(=O)NC6CC6)cc5F)c4s3)nc2)CC1 [Compound 350] | < 50 |
| CCOC(=O)NC1CCN(Cc2ccc(-c3cc4nccc(Oc5ccc(NC(=O)NC6CC6)cc5F)c4s3)nc2)CC1 [Compound 351] | < 50 |
| CNC(=O)NC1CCN(Cc2ccc(-c3cc4nccc(Oc5ccc(NC(=O)NC6CC6)cc5F)c4s3)nc2)CC1 [Compound 352] | < 50 |
| CCNC(=O)NC1CCN(Cc2ccc(-c3cc4nccc(Oc5ccc(NC(=O)NC6CC6)cc5F)c4s3)nc2)CC1 [Compound 353] | < 50 |
| CCCNC(=O)NC1CCN(Cc2ccc(-c3cc4nccc(Oc5ccc(NC(=O)NC6CC6)cc5F)c4s3)nc2)CC1 [Compound 354] | < 50 |
| CC(C)NC(=O)NC1CCN(Cc2ccc(-c3cc4nccc(Oc5ccc(NC(=O)NC6CC6)cc5F)c4s3)nc2)CC1 [Compound 355] | < 50 |
| CN1CCN(C(=O)NC2CCN(Cc3ccc(-c4cc5nccc(Oc6ccc(NC(=O)NC7CC7)cc6F)c5s4)nc3)CC2)CC1 [Compound 357, N-(1-((6-(7-(4-(3-Cyclopropylureido)-2-fluorophenoxy)thieno[3,2-b]pyridin-2-yl)pyridin-3-yl)methyl)piperidin-4-yl)-4-methylpiperazine-1-carboxamide] | < 50 |
| CN(CCO)C(=O)NC1CCN(Cc2ccc(-c3cc4nccc(Oc5ccc(NC(=O)NC6CC6)cc5F)c4s3)nc2)CC1 [Compound 358, 1-Cyclopropyl-3-(3-fluoro-4-(2-(5-((4-((2-hydroxyethyl-methylamino)carbonylamino)piperidin-1-yl)methyl)pyridin-2-yl)thieno[3,2-b]pyridin-7-yloxy)phenyl)urea] | < 50 |
| CCN(CC)CCn1cc(-c2cc3nccc(Oc4ccc(NC(=O)NC5CC5)cc4F)c3s2)nn1 [Compound 363] | < 50 |
| O=C(Nc1ccc(Oc2ccnc3cc(-c4cn(CCN5CCOCC5)nn4)sc23)c(F)c1)NC1CC1 [Compound 364] | < 50 |
| CN1CCN(C(=O)Cn2cc(-c3cc4nccc(Oc5ccc(NC(=O)NC6CC6)cc5F)c4s3)nn2)CC1 [Compound 365] | < 50 |
| CN(C)CCn1cc(-c2cc3nccc(Oc4ccc(NC(=O)NC5CC5)cc4F)c3s2)nn1 [Compound 367] | 50 to 100 |
